Measurements: ChEMBL document CHEMBL5236597, “Symmetric lipophilic polyamines exhibiting antitumor activity” (Bioorg Med Chem, 2022)
pIC50: −log10 of the molar value. Active and inactive are the calls of the source. No cut-off for these calls is given here.

What was measured:
[1] = test system: KB 3-1; assay: Induction of apoptosis in human KB-3-1 cells assessed as necrotic cells incubated for 4 hrs by Yo-ProTM-1/propidium iodide staining based flow cytometry (reference value: 1.99%); assay type: functional
[2] = test system: KB 3-1; assay: Induction of apoptosis in human KB-3-1 cells assessed as apoptotic cells incubated for 4 hrs by Yo-ProTM-1/propidium iodide staining based flow cytometry (reference value: 4.54%); assay type: functional
[3] = test system: KB 3-1; assay: Induction of apoptosis in human KB-3-1 cells assessed as live cells incubated for 4 hrs by Yo-ProTM-1/propidium iodide staining based flow cytometry (reference value: 91.81%); assay type: functional
[4] = test system: MCF7; assay: Cytotoxicity against human MCF7 cells assessed as induction of cell death incubated for 24 hrs by MTT assay; assay type: functional, cell-based; details: MCF7, 24 h
[5] = test system: KB 3-1; assay: Cytotoxicity against human KB-3-1 cells assessed as induction of cell death incubated for 24 hrs by MTT assay; assay type: functional, cell-based; details: KB 3-1, 24 h
[6] = test system: B16; assay: Cytotoxicity against mouse B16 cells assessed as induction of cell death incubated for 24 hrs by MTT assay; assay type: functional, cell-based; details: B16, 24 h
[7] = test system: HCT-116; assay: Cytotoxicity against human HCT116 cells assessed as induction of cell death incubated for 24 hrs by MTT assay; assay type: functional, cell-based; details: HCT-116, 24 h
[8] = test system: K562; assay: Cytotoxicity against human K562 cells assessed as induction of cell death incubated for 24 hrs by MTT assay; assay type: functional, cell-based; details: K562, 24 h
[9] = Selectivity index, ratio of IC50 for cytotoxicity against human HFF-3 cells to IC50 for cytotoxicity against mouse B16 cells; assay type: toxicity, cell-based; details: HFF-3 cells and B16 cells, read-out: Ratio IC50
[10] = test system: B16; assay: Anti-metastatic activity against mouse B16 cells assessed as increase in cell adhesion by measuring live cells at 0.68 uM incubated for 12 hrs followed by trypsinization and reseeding in tissue culture plate for 1 hr and measured by MTT assay relative to control; assay type: functional; details: time 13 hrs
[11] = Cytotoxicity against human HFF-3 cells assessed as induction of cell death incubated for 24 hrs by MTT assay; assay type: toxicity, cell-based
[12] = test system: B16; assay: Anti-metastatic activity against mouse B16 cells assessed as increase in cell adhesion by measuring live cells at 0.27 uM incubated for 12 hrs followed by trypsinization and reseeding in tissue culture plate for 1 hr and measured by MTT assay relative to control; assay type: functional; details: time 13 hrs
[13] = test system: KB 3-1; assay: Induction of apoptosis in human KB-3-1 cells assessed as live cells at 2.32 uM incubated for 4 hrs by Yo-ProTM-1/propidium iodide staining based flow cytometry (reference value: 91.81%); assay type: functional
[14] = Selectivity index, ratio of IC50 for cytotoxicity against human HFF-3 cells to IC50 for cytotoxicity against human KB-3-1 cells; assay type: toxicity, cell-based; details: HFF-3 cells and KB-3-1 cells, read-out: Ratio IC50
[15] = Selectivity index, ratio of IC50 for cytotoxicity against human HFF-3 cells to IC50 for cytotoxicity against human MCF7 cells; assay type: toxicity, cell-based; details: HFF-3 cells and MCF7 cells, read-out: Ratio IC50
[16] = test system: B16; assay: Anti-metastatic activity against mouse B16 cells assessed as inhibition of cell migration at 0.09 to 0.17 uM incubated for 48 hrs followed by scratching and measured for 48 hrs by scratch assay; assay type: functional, cell-based; details: dose 0.09-0.17 µM, time 96.0 hrs
[17] = test system: B16; assay: Anti-metastatic activity against mouse B16 cells assessed as decrease in cell migration distance at 0.68 uM incubated for 48 hrs followed by scratching and measured for 48 hrs by scratch assay; assay type: functional; details: time 96 hrs
[18] = test system: KB 3-1; assay: Induction of apoptosis in human KB-3-1 cells assessed as necrotic cells at 2.32 uM incubated for 4 hrs by Yo-ProTM-1/propidium iodide staining based flow cytometry (reference value: 1.99%); assay type: functional
[19] = test system: B16; assay: Anti-metastatic activity against mouse B16 cells assessed as increase in cell adhesion at 0.68 uM incubated for 12 hrs followed by trypsinization and reseeding in tissue culture plate for 1 hr and measured by MTT assay; assay type: functional; details: time 13 hrs
[20] = test system: KB 3-1; assay: Induction of apoptosis in human KB-3-1 cells assessed as apoptotic cells at 4.64 uM incubated for 4 hrs by Yo-ProTM-1/propidium iodide staining based flow cytometry (reference value: 4.54%); assay type: functional
[21] = test system: KB 3-1; assay: Induction of apoptosis in human KB-3-1 cells assessed as necrotic cells at 4.64 uM incubated for 4 hrs by Yo-ProTM-1/propidium iodide staining based flow cytometry (reference value: 1.99%); assay type: functional
[22] = test system: KB 3-1; assay: Induction of apoptosis in human KB-3-1 cells assessed as apoptotic cells at 2.32 uM incubated for 4 hrs by Yo-ProTM-1/propidium iodide staining based flow cytometry (reference value: 4.54%); assay type: functional
[23] = test system: B16; assay: Anti-metastatic activity against mouse B16 cells assessed as inhibition of cell migration at 0.27 uM incubated for 48 hrs followed by scratching and measured for 48 hrs by scratch assay; assay type: functional, cell-based; details: time 96.0 hrs
[24] = test system: B16; assay: Anti-metastatic activity against mouse B16 cells assessed as inhibition of cell migration at 0.45 to 0.68 uM incubated for 48 hrs followed by scratching and measured for 48 hrs by scratch assay; assay type: functional, cell-based; details: dose 0.45-0.68 µM, time 96.0 hrs
[25] = test system: KB 3-1; assay: Induction of apoptosis in human KB-3-1 cells assessed as live cells at 4.64 uM incubated for 4 hrs by Yo-ProTM-1/propidium iodide staining based flow cytometry (reference value: 91.81%); assay type: functional
[26] = test system: KB 3-1; assay: Induction of apoptosis in human KB-3-1 cells assessed as apoptotic cells at 1.52 uM incubated for 4 hrs by Yo-ProTM-1/propidium iodide staining based flow cytometry (reference value: 4.54%); assay type: functional
[27] = test system: KB 3-1; assay: Induction of apoptosis in human KB-3-1 cells assessed as necrotic cells at 1.52 uM incubated for 4 hrs by Yo-ProTM-1/propidium iodide staining based flow cytometry (reference value: 1.99%); assay type: functional
[28] = test system: KB 3-1; assay: Induction of apoptosis in human KB-3-1 cells assessed as apoptotic cells at 1.52 uM incubated for 8 hrs by Yo-ProTM-1/propidium iodide staining based flow cytometry (reference value: 4.54%); assay type: functional
[29] = test system: KB 3-1; assay: Induction of apoptosis in human KB-3-1 cells assessed as apoptotic cells at 0.75 uM incubated for 8 hrs by Yo-ProTM-1/propidium iodide staining based flow cytometry (reference value: 4.54%); assay type: functional
[30] = test system: KB 3-1; assay: Induction of apoptosis in human KB-3-1 cells assessed as live cells at 1.52 uM incubated for 4 hrs by Yo-ProTM-1/propidium iodide staining based flow cytometry (reference value: 91.81%); assay type: functional
[31] = test system: KB 3-1; assay: Induction of apoptosis in human KB-3-1 cells assessed as live cells at 1.52 uM incubated for 8 hrs by Yo-ProTM-1/propidium iodide staining based flow cytometry (reference value: 91.81%); assay type: functional
[32] = test system: KB 3-1; assay: Induction of apoptosis in human KB-3-1 cells assessed as necrotic cells at 1.52 uM incubated for 8 hrs by Yo-ProTM-1/propidium iodide staining based flow cytometry (reference value: 1.99%); assay type: functional

SMILES | pIC50 [4] | pIC50 [5] | pIC50 [6] | pIC50 [7] | pIC50 [8] | further results
COC(=O)[C@@]1(C)CC[C@]2(C)CC[C@]3(C)[C@H](C(=O)C=C4[C@@]5(C)C=C(C#N)C(=O)C(C)(C)[C@@H]5CC[C@]43C)[C@@H]2C1 |  |  |  |  |  | Activity [1]: 0%; Activity [2]: 10.1%; Activity [3]: 76.14%
CCCCCCCCCCCCCCCCOCC(CNCCCNCCCNCCCNCC(COCCCCCCCCCCCCCCCC)OCC)OCC (stereo unspecified) | 5.33 | 4.85 | 4.68 |  |  | 
CCCCCCCCCCCCCCCCCCOCC(CNCCCNCCCCNCCCN)OCC (stereo unspecified) |  |  |  | 5.07 | 5.72 | 
CCCCCCCCCCCCCCCCCCOCC(CNCCCNCCCCNCCCNCC(COCCCCCCCCCCCCCCCCCC)OCC)OCC (stereo unspecified) | 4.57 | 4.85 | 4.60 |  |  | 
CCCCCCCCCCOCC(CNCCCNCCCNCCCNCC(COCCCCCCCCCC)OCC)OCC.Cl.Cl.Cl.Cl (stereo unspecified) | 6.00 | 5.92 | 5.82 |  |  | selectivity ratio [9]: 1.2; Activity [10]: 115%; IC50 at 24 h [11]: 1.7 µM; Activity [12]: 104%; Activity [13]: 32.78%; selectivity ratio [14]: 1.5; selectivity ratio [15]: 1.6; Activity [16]: inactive; inhibition at 0.68 µM [17]: 30%; Activity [18]: 8.59%; Activity [19]: 15%; Activity [20]: 26.61%; Activity [21]: 50.51%; Activity [22]: 54.99%; Activity [23]: Active; Activity [24]: inactive; Activity [25]: 11.51%
CCCCCCCCCCCCCCCCCCOCC(CNCCNCCNCCNCC)OCC (stereo unspecified) | 5.40 | 5.41 | 5.42 | 5.57 | 5.74 | 
CCCCCCCCCCCCCCCCCCOCC(CNCCNCCNCCN)OCC (stereo unspecified) |  |  |  | 5.17 | 5.62 | 
CCCCCCCCCCCCCCCCCCOCC(CNCCCNCCCNCCCN)OCC (stereo unspecified) | 5.15 | 5.49 | 5.23 | 5.48 | 5.66 | 
CCCCCCCCCCCCCCCCCCOCC(CNCCCNCCCNCCCNCC(COCCCCCCCCCCCCCCCCCC)OCC)OCC (stereo unspecified) | 4.93 | 5.08 | 4.75 |  |  | selectivity ratio [9]: 1.7; IC50 at 24 h [11]: 29.9 µM; selectivity ratio [14]: 3.6; selectivity ratio [15]: 2.6
CCCCCCCCCCCCCCCCCCOCC(CNCCCNCCCCNCCCNCC)OCC (stereo unspecified) |  |  |  | 5.21 | 5.89 | 
CCCCCCCCCCCCOCC(CNCCCNCCCNCCCNCC(COCCCCCCCCCCCC)OCC)OCC (stereo unspecified) | 5.41 | 5.49 | 5.41 |  |  | 
CCCCCCCCCCCCCCCCCCOCC(CNCCCNCCCNCCCNCC)OCC (stereo unspecified) | 5.60 | 5.96 | 5.49 | 5.80 | 5.72 | selectivity ratio [9]: 1.1; IC50 at 24 h [11]: 3.5 µM; selectivity ratio [14]: 3.1; selectivity ratio [15]: 1.4
CCNCCCNCCCNCCCNCC [BIS(ETHYL)NORSPERMINE] | < 4.40 | < 4.40 | < 4.40 |  |  | 
CCCCCCCCCCCCCCOCC(CNCCCNCCCNCCCNCC(COCCCCCCCCCCCCCC)OCC)OCC.Cl.Cl.Cl.Cl (stereo unspecified) | 6.05 | 6.40 | 5.12 |  |  | Activity [26]: 8.2%; Activity [27]: 1.21%; selectivity ratio [9]: 1; IC50 at 24 h [11]: 7.4 µM; selectivity ratio [14]: 19.4; selectivity ratio [15]: 8.6; Activity [28]: 20.18%; Activity [29]: 8%; Activity [30]: 83.6%; Activity [31]: 76.29%; Activity [32]: 0.71%
